The assay has as its system 885724-159-R-J1-PDC complex spheroid viability. The assay can be described thus: Anticancer human tumor 885724-159-R-J1-PDC patient-derived pancreatic adenocarcinoma cell line growth inhibition [GQUAD]. As to conditions: for viability, T/C: stronger effect = lower value. From the text: DNA G-quadruplex Stabilizer Agents in Combinations in Complex Spheroids
A high-throughput screen of multi-cell type tumor spheroids was designed to identify active combinations of DNA G-quadruplex stabilizer agents and targeted small molecules. Complex spheroids include a stromal component modeled by human endothelial cells (HUVEC) and fibroblasts modeled by human mesenchymal stem cells (MSCs). The concentration ranges selected for each drug and investigational agent were based upon clinically achievable concentrations if the clinical Cmax of the agent was known.
Compounds. The drugs and investigational agents: pidnarulex (CX-5461; NSC782164), APTO-253 (NSC789042), BRACO-19 (NSC847499), peposertib (NSC802822), ceralasertib (NSC780249), elimusertib (NSC800525), camonsertib (NSC841442), AZD-1390 (NSC803789), olaparib (NSC753686), talazoparib (NSC767125), ART-558 (NSC835418), sotorasib (NSC818433), MRTX-1133 (NSC836407), SN-38 (NSC673596), topotecan (NSC609699), etoposide (NSC141540), doxorubicin (NSC123127), gemcitabine (NSC613327), 5-fluorouracil (NSC19893), paclitaxel (NSC125973), vemurafenib (NSC761431), panobinostat (NSC761190), R-306465 (JNJ-16241199; NSC773264), adavosertib (NSC754352), TP-3654 (NSC805149), carboplatin (NSC241240), KSQ-4279 (NSC840948), and staurosporine (NSC755774) were obtained from the National Cancer Institute (NCI) Developmental Therapeutics Program Chemical Repository (34). The FDA-approved anticancer drug set is available from the NCI Developmental Therapeutics Program. […] The stock solutions were prepared in dimethyl sulfoxide (DMSO, Sigma-Aldrich, St. Louis, MO, cat. D2650) at 800-fold the tested concentration and stored at -70 degrees C prior to their use. All drugs and investigational agents were tested over a range starting from a high concentration at or near the clinical Cmax and decreasing in half-log increments. If the clinical Cmax for an agent had not been determined, the highest concentration tested was 10 microM.
2.3 Cell Culture. All cells were maintained in an incubator at 37 degrees C and 5% CO2 with 95% humidity. The PDC lines were cultured according to standard operating procedures established by the NCI PDMR. All PDCs were thawed and cultured in Matrigel-coated flasks prepared with a working solution of 1X Ham's F-12 nutrient mix, without supplementation (Invitrogen, cat. 11765054), 100 U/mL penicillin-streptomycin (Invitrogen, cat. 15140122), and 2.5% Matrigel (Corning Inc., cat. 354248) for the first three passages. The 857933-349-R-J2-PDC line was cultured in 6C/Colon 1B media, which includes advanced DMEM/F-12 (Thermo Fisher Scientific, cat. 12634028), 10 mM HEPES (Thermo Fisher Scientific, cat. 15630080), 1X GlutaMAX supplement (Thermo Fisher Scientific, cat. 35050061), 0.1 mg/mL primocin (InvivoGen, cat. ant-pm-2), 10% defined fetal bovine serum, heat inactivated (HyClone Laboratories Inc., cat. SH30070.03HI), 50% L-WRN conditioned media (ATCC, cat. CRL-3276), 1.25 mM N-Acetyl-L-cysteine (Sigma-Aldrich, cat. A9165), 10 mM nicotinamide (Sigma-Aldrich, cat. N0636), 1X B-27 supplement (Thermo Fisher Scientific, cat. 17504044), 1X N-2 supplement (Thermo Fisher Scientific, cat. 17502048), 10 microM Y-27632 dihydrochloride (Tocris Bioscience, cat. 1254), and 50 ng/mL human EGF recombinant protein (Thermo Fisher Scientific, cat. PHG0311). The 485176-168-R4-J1-PDC line was cultured in Panc media, which includes all 6C/Colon 1B media components plus 100 ng/mL human FGF-10 (Thermo Fisher Scientific, cat. 100-26), 500 nM SB-431542 (Selleckchem, cat. S1067), and gastrin (Tocris, cat. 3006).
[…]

“And” between values parts separate entries of the source, which are not always exact repeats. Identical values can stand only once.
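Further: spheroids exposed to agents for seven days before readout.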
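Wherever viability, T/C is given: percent of vehicle control viability where 100% = DMSO wells.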

Broadly, the viability, T/C is the ratio of treated to control. As usually defined, the IC50 is the concentration at which inhibition is half-maximal. As for `Cc1[nH]c2ccc(F)cc2c1-c1nc2c3cccnc3c3ncccc3c2[nH]1`, the viability, T/C runs as follows: (compound 0.0316 µM) 100% [middle of 12 runs]; (compound 0.316 µM) 92.7% [middle of 12 runs]; (compound 1 µM) 76.8% [middle of 12 runs]; (compound 10 µM) 77.7% [middle of 12 runs]. Also, the IC50 was greater than 10000 nM (compound alone, run of 02/20/2024) and greater than 10000 nM (compound alone, run of 02/26/2024).
Consider `CCc1c2c(nc3ccc(O)cc13)-c1cc3c(c(=O)n1C2)COC(=O)[C@]3(O)CC`, for which the viability, T/C by setting is: (compound 0.000999 µM) 85.3% and 91.4% and 93.3%; (compound 0.00316 µM) 87.5% and 81.8% and 85.2%; (compound 0.00999 µM) 63.2% and 62.8% and 77.4%; (compound 0.0316 µM) 66.7% and 67.3% and 62.1%; (compound 0.0999 µM) 60.3% and 45.8% and 59%; (compound 0.316 µM) 17.2% and 8.7% and 16.4%. Besides, under “curve of compound”, the IC50 was 110 nM and 64.3 nM and 101 nM.
With `C=CC(=O)N1CCN(c2nc(=O)n(-c3c(C)ccnc3C(C)C)c3nc(-c4c(O)cccc4F)c(F)cc23)C(C)C1` (stereo not given), the viability, T/C is, setting by setting: (compound 0.0316 µM) 96.5% and 93.7% and 94.2%; (compound 0.1 µM) 88.8% and 90% and 101%; (compound 0.316 µM) 98.2% and 110% (2×); (compound 1 µM) 117% and 108% and 105%; (compound 3.16 µM) 95.2% and 106% and 104%; (compound 10 µM) 87% and 89.9% and 96.3%. The IC50 (curve of compound) is greater than 10000 nM.
Take `C=CCn1c(=O)c2cnc(Nc3ccc(N4CCN(C)CC4)cc3)nc2n1-c1cccc(C(C)(C)O)n1`: the viability, T/C by setting is: (compound 0.0316 µM) 90.4% and 95.2% and 93.1%; (compound 0.1 µM) 81.6% and 90.3% and 88.1%; (compound 0.316 µM) 68.6% and 78.2% and 86%; (compound 1 µM) 75.6% and 70.3% and 89.2%; (compound 3.16 µM) 65.7% and 58% and 84%; (compound 10 µM) 74.5% and 66.7% and 91.9%. In addition, the IC50 (curve of compound) was greater than 10000 nM.
Take `COc1cccc2c1C(=O)c1c(O)c3c(c(O)c1C2=O)CC(O)(C(=O)CO)CC3OC1CC(N)C(O)C(C)O1` (stereo not given) + Cc1cnc(CNC(=O)c2c(=O)c3ccc(N4CCCN(C)CC4)nc3n3c2sc2ccccc23)cn1: the IC50 is, setting by setting: (curve of first compound, second compound 0.0316 µM) 2420 nM; (curve of first compound, second compound 0.1 µM) 2030 nM; (curve of first compound, second compound 0.316 µM) 1780 nM; (curve of first compound, second compound 1 µM) 1340 nM; (curve of first compound, second compound 3.16 µM) 1050 nM; (curve of first compound, second compound 10 µM) 889 nM. Also, the viability, T/C by setting is: (second compound 0.0316 µM, first compound 0.0316 µM) 118%; (second compound 0.0316 µM, first compound 0.1 µM) 99.5%; (second compound 0.0316 µM, first compound 0.316 µM) 97.7%; (second compound 0.0316 µM, first compound 1 µM) 79.2%; (second compound 0.0316 µM, first compound 3.16 µM) 39.8%; (second compound 0.0316 µM, first compound 10 µM) 3.19%. For the same compound, the viability, T/C by setting is: (second compound 0.1 µM, first compound 0.0316 µM) 106%; (second compound 0.1 µM, first compound 0.1 µM) 109%; (second compound 0.1 µM, first compound 0.316 µM) 99%; (second compound 0.1 µM, first compound 1 µM) 83.1%; (second compound 0.1 µM, first compound 3.16 µM) 29.6%; (second compound 0.1 µM, first compound 10 µM) 2.62%. Also, the viability, T/C is 96.9% (second compound 0.316 µM, first compound 0.0316 µM); 93% (second compound 0.316 µM, first compound 0.1 µM); 89.2% (second compound 0.316 µM, first compound 0.316 µM); 62.6% (second compound 0.316 µM, first compound 1 µM); 35.8% (second compound 0.316 µM, first compound 3.16 µM); 4.79% (second compound 0.316 µM, first compound 10 µM). Moreover, the viability, T/C (second compound 1 µM, first compound 0.0316 µM) was 89.7%; the viability, T/C (second compound 1 µM, first compound 0.1 µM) is 88.8%; the viability, T/C (second compound 1 µM, first compound 0.316 µM) was 85.2%; the viability, T/C (second compound 1 µM, first compound 1 µM) was 57.2%; the viability, T/C (second compound 1 µM, first compound 3.16 µM) was 24.1%; the viability, T/C (second compound 1 µM, first compound 10 µM) is 2.16%. In addition, the viability, T/C (second compound 3.16 µM, first compound 0.0316 µM) was 88.1%; the viability, T/C (second compound 3.16 µM, first compound 0.1 µM) is 84.8%; the viability, T/C (second compound 3.16 µM, first compound 0.316 µM) was 73.2%; the viability, T/C (second compound 3.16 µM, first compound 1 µM) was 53.6%; the viability, T/C (second compound 3.16 µM, first compound 3.16 µM) was 17.4%; the viability, T/C (second compound 3.16 µM, first compound 10 µM) was 0.96%. Moreover, the viability, T/C (second compound 10 µM, first compound 0.0316 µM) is 72.2%; the viability, T/C (second compound 10 µM, first compound 0.1 µM) was 80.4%; the viability, T/C (second compound 10 µM, first compound 0.316 µM) was 74%; the viability, T/C (second compound 10 µM, first compound 1 µM) was 46.4%; the viability, T/C (second compound 10 µM, first compound 3.16 µM) is 12.4%; the viability, T/C (second compound 10 µM, first compound 10 µM) is 0.74%.
As to `Cn1ncnc1[C@H]1c2n[nH]c(=O)c3cc(F)cc(c23)N[C@@H]1c1ccc(F)cc1`, the viability, T/C is 93.4% and 97.4% and 94.5% (compound 0.000999 µM); 108% and 94.8% and 82.2% (compound 0.00316 µM); 87.3% and 97.6% and 97.2% (compound 0.00999 µM); 92.5% and 97.9% and 93.9% (compound 0.0316 µM); 88.5% and 97.7% and 103% (compound 0.0999 µM); 89.2% and 88% and 94.4% (compound 0.316 µM). Further, the IC50 (curve of compound) was greater than 316 nM.
`CC1COCCN1c1cc(C2(O)CC3CCC(C2)O3)c2cnn(-c3ccn[nH]3)c2n1` (stereo not given): the viability, T/C (compound 0.0316 µM) was 86.4% and 103% and 91.5%; the viability, T/C (compound 0.1 µM) is 85.4% and 80.9% and 79.5%; the viability, T/C (compound 0.316 µM) is 74.2% and 74.5% and 71.8%; the viability, T/C (compound 1 µM) was 48.6% and 56% and 53.5%; the viability, T/C (compound 3.16 µM) is 37.3% and 46.2% and 47.5%; the viability, T/C (compound 10 µM) is 28.3% and 38.1% and 36.4%. In addition, where the note is “curve of compound”, the IC50 is 1010 nM and 2210 nM and 1990 nM.
Regarding `C#Cc1c(F)ccc2cc(O)cc(-c3ncc4c(N5CC6CCC(C5)N6)nc(OCC56CCCN5CC(F)C6)nc4c3F)c12` (stereo not given), the viability, T/C was 97.3% and 99.6% and 91.8% (compound 0.0316 µM); 101% and 92.4% and 93% (compound 0.1 µM); 89.8% and 94.6% and 104% (compound 0.316 µM); 90.2% and 88.2% and 81.5% (compound 1 µM); 53.6% and 55.8% and 58.6% (compound 3.16 µM); 30% and 25.7% and 22.7% (compound 10 µM). Where the note is “curve of compound”, the IC50 was 3800 nM and 3950 nM and 4070 nM.

Values taken from PubChem BioAssay AID2060502 (Molecular Pharmacology Branch, DTP, NCI, 2025).
